Here are results for three compounds from patent US4357470A, “Cephalosporin compounds” (Taisho Pharmaceutical Co., Ltd., priority 1980, dated 1982).

Each structure is given as a SMILES string. Where a name gives a salt, the structure may show the parent alone. Read-outs that look alike come from different tables or passages of the source.

For data set [1], the system named is Klebsiella pneumoniae 3K-2. The experiment in a line: Antibacterial activity, agar plate dilution method (MIC), K. pneumoniae. Type of data set: cell-based. The following applies: 3K2. As to the method:
(§1) Antibacterial activities of the compounds of the present invention were tested about various microorganisms using an agar plate dilution method. Commercial cefazolin sodium was used as a control. The test results for 7-[D-α-(4-hydroxy-pyrazino[2,3-f]quinoline-3-carboxamido)-α-phenylacetamido]-3-(1-carboxymethyl-tetrazole-5-yl)thiomethyl-Δ^3 -cephem-4-carboxylic acid disodium salt (TC-203) and 7-[D-Δ-(4-hydroxy-pyrazino[2,3-f]quinoline-3-carboxamido)-Δ-(4-hydroxyphenyl)acetamido]-3-(1-carboxymethyl-tetrazole-5-yl)thiomethyl-Δ^3 -cephem-4-carboxylic acid disodium salt (TC-403) are expressed by MIC value (Minimum Inhibitory Concentration, μg/ml) and shown in Table 1.

Data set [2] deals with Staphylococcus aureus FDA 209 P. Nature of the data set: Antibacterial activity, agar plate dilution method (MIC), S. aureus. To be noted: FDA209. Type of data set: cell-based. The method, then: as §1
Data set [3] relates to Pseudomonas aeruginosa NC-5. The experiment in a line: Antibacterial activity, agar plate dilution method (MIC), P. aeruginosa. Type of data set: cell-based. The following applies: NC5. The method, then: as §1
The subject of another data set is Proteus vulgaris IID 874. Nature of the data set: Antibacterial activity, agar plate dilution method (MIC), P. vulgaris. Type of data set: cell-based. To be noted: IID874. As to the method:
as §1

The next data set deals with Escherichia coli NIHJC-2. The experiment in a line: Antibacterial activity, agar plate dilution method (MIC), E. coli. It counts as cell-based. To be noted: NIHJC2. The method, then:
as §1

Another data set in a line: in vivo. Details: species or system mice. To be noted: mouse, im. The method, then:
The compounds of the present invention were administered to mice intramuscularly and change of blood levels with lapse of time was determined. Commercial cefazolin sodium was used as a control.

Data set [4] is described as follows: Intraperitoneal acute toxicity in rats. It counts as in vivo. The following applies: dose less than 5000 mg/kg of body weight. The text has this: The compounds of the present invention are of low toxicity.
Setting [5] is: Escherichia coli NIHJC-2, agar plate dilution, read-out: MIC.

In the case of `O=C(O)Cn1nnnc1SCC1=C(C(=O)O)N2C(=O)[C@@H](NC(=O)[C@H](NC(=O)c3cnc4ccc5nccnc5c4c3O)c3ccccc3)[C@H]2SC1` [TC-203, 7-[D-α-(4-hydroxy-pyrazino[2,3-f]quinoline-3-carboxamido)-α-phenylacetamido]-3-(1-carboxymethyl-tetrazole-5-yl)thiomethyl-Δ^3-cephem-4-carboxylic acid disodium salt], the MIC in data set [1] is 0.78 µg/mL; in data set [2], 3.13 µg/mL; in data set [3] it was 12.5 µg/mL; against Proteus vulgaris IID 874 it was 1.56 µg/mL; with Escherichia coli NIHJC-2 (setting [5]) it was 0.78 µg/mL. The concentration at 0.25 h in the data set “in vivo” came out at 150 µg/mL. In “in vivo”, this compound had a concentration at 0.5 h of 162 µg/mL. The concentration at 1 h in the data set “in vivo” was 82 µg/mL. For the same compound, the concentration at 2 h in the data set “in vivo” was 32 µg/mL.
For `O=C(O)Cn1nnnc1SCC1=C(C(=O)O)N2C(=O)[C@@H](NC(=O)[C@H](NC(=O)c3cnc4ccc5nccnc5c4c3O)c3ccc(O)cc3)[C@H]2SC1` [TC-403, 7-[D-Δ-(4-hydroxy-pyrazino[2,3-f]quinoline-3-carboxamido)-Δ-(4-hydroxyphenyl)acetamido]-3-(1-carboxymethyl-tetrazole-5-yl)thiomethyl-Δ^3-cephem-4-carboxylic acid disodium salt], the intraperitoneal acute toxicity result in data set [4] is “hardly shows any intraperitoneal acute toxicity in rats at a dose less than 5000 mg/kg of body weight”. Moreover, the minimal inhibitory concentration (MIC) in data set [1] was determined as 1.56 µg/mL; in data set [2] it was 6.25 µg/mL; in data set [3], 12.5 µg/mL; with Proteus vulgaris IID 874, 3.13 µg/mL; in the data set on Escherichia coli NIHJC-2 (setting [5]), 1.56 µg/mL. The same compound showed a concentration at 0.25 h in “in vivo” of 92 µg/mL. For the same compound, the concentration at 0.5 h in “in vivo” came to 180 µg/mL. The same compound came in with a concentration at 1 h in the data set “in vivo” of 62 µg/mL. This compound also gave a concentration at 2 h in the data set “in vivo” of 42 µg/mL.
Turning to `Cc1nnc(SCC2=C(C(=O)O)N3C(=O)[C@@H](NC(=O)Cn4cnnn4)[C@H]3SC2)s1` [cefazolin sodium, reference compound], the MIC was above 100 µg/mL in data set [1]; below 0.1 µg/mL in data set [2]; above 100 µg/mL in data set [3]; above 100 µg/mL against Proteus vulgaris IID 874; 1.56 µg/mL with Escherichia coli NIHJC-2 (Escherichia coli). The compound also showed a concentration at 0.25 h in the data set “in vivo” of 62 µg/mL. In the data set “in vivo”, this compound showed a concentration at 0.5 h of 42 µg/mL. The compound also came in with a concentration at 1 h in the data set “in vivo” of 5.5 µg/mL.
